Values of other authors in paper PMC13231908, “Evaluating acridones as novel therapeutics for human babesiosis” (Antimicrobial Agents and Chemotherapy, 2026).

Conditions: mouse, in vivo, po, 80 mg/kg

| Structure (SMILES) | AUCinf [ng·h/mL] | AUClast [ng·h/mL] |
| --- | --- | --- |
| O=c1c2cc(F)c(Oc3ccc(OC(F)(F)F)cc3)cc2[nH]c2cc(Cl)cc(F)c12 [T226] | 95.7 | 33.9 |
